{
  "source": "patent US20150087619A1",
  "about": "“METHOD OF MITIGATING VIRUS ASSOCIATED END-ORGAN DAMAGE” (CHIMERIX, INC., priority 2012, published 2015)",
  "key": {"[1]": {"system": "AdV", "assay": "In vitro antiviral activity in cell culture", "type": "cell-based"}, "[2]": {"system": "BKV", "assay": "In vitro antiviral activity in cell culture", "type": "cell-based"}, "[3]": {"system": "VZV", "assay": "In vitro antiviral activity in cell culture", "settings": "for EC50: Human alphaherpesvirus 3, read-out: EC50s"}, "[4]": {"system": "HSV-1", "assay": "In vitro antiviral activity in cell culture", "type": "cell-based", "settings": "HSV-1, cell culture; for EC50: Human alphaherpesvirus 1"}, "[5]": {"system": "EBV", "assay": "In vitro antiviral activity in cell culture", "type": "cell-based", "settings": "human gammaherpesvirus 4"}, "[6]": {"system": "CMV", "assay": "In vitro antiviral activity in cell culture", "type": "cell-based", "settings": "Human betaherpesvirus 5"}, "[7]": {"system": "HHV-6(B)", "assay": "In vitro antiviral activity in cell culture", "type": "cell-based"}, "[8]": {"system": "BKV", "assay": "Study HDP-CDV-201: serum creatinine as marker of renal function"}, "[9]": {"system": "BKV", "assay": "Study HDP-CDV-201: hematuria and BKV bladder events", "type": "in vivo, human", "method": "A multicenter, randomized, double-blind, placebo-controlled, dose-escalation study of safety, tolerability, and ability of HDP-CDV to prevent or control […], and EBV infection and associated disorders was conducted. During enrollment of patients in the study, urine samples of candidate patients were routinely screened for BKV. Plasma was collected from patients who tested positive for BKV viruria in urine, and AdV, EBV and BKV level in the plasma was evaluated."}, "[10]": {"settings": "BK positive during treatment (1/93)"}, "[11]": {"settings": "BK positive during treatment, N=93"}},
  "data": [
    {"smiles": "Nc1nc2c(ncn2COCCO)c(=O)[nH]1", "note": "[Acyclovir]", "values": [
      {"measurement": "EC50", "setting": "[1]", "value": "> 100000", "unit": "nM"},
      {"measurement": "EC50", "setting": "[2]", "value": "> 200000", "unit": "nM"}
    ]},
    {"smiles": "CC(C)Nc1nc2cc(Cl)c(Cl)cc2n1[C@H]1O[C@@H](CO)[C@H](O)[C@@H]1O", "note": "[Maribavir]", "values": [
      {"measurement": "EC50s", "setting": "[3]; VZV, cell culture", "value": "No Activity"},
      {"measurement": "EC50s", "setting": "[4]", "value": "No Activity"},
      {"measurement": "EC50", "setting": "[5]", "value": 630, "unit": "nM"},
      {"measurement": "EC50", "setting": "[6]", "value": 310, "unit": "nM"}
    ]},
    {"smiles": "Nc1ccn(C[C@@H](CO)OCP(=O)(O)O)c(=O)n1", "note": "[Cidofovir]", "values": [
      {"measurement": "EC50", "setting": "[3]", "value": 500, "unit": "nM"},
      {"measurement": "EC50", "setting": "[1]", "value": 1300, "unit": "nM"},
      {"measurement": "EC50", "setting": "[4]", "value": 5500, "unit": "nM"},
      {"measurement": "EC50", "setting": "[5]", "value": "> 108000", "unit": "nM"},
      {"measurement": "EC50", "setting": "[6]", "value": 400, "unit": "nM"},
      {"measurement": "EC50", "setting": "[2]", "value": 115000, "unit": "nM"},
      {"measurement": "EC50", "setting": "[7]", "value": 5400, "unit": "nM"}
    ]},
    {"smiles": "Nc1nc(O)c2ncn(COC(CO)CO)c2n1", "note": "[Ganciclovir]", "values": [
      {"measurement": "EC50", "setting": "[3]", "value": 1300, "unit": "nM"},
      {"measurement": "EC50", "setting": "[1]", "value": "4500 to 33000", "unit": "nM"},
      {"measurement": "EC50", "setting": "[4]", "value": 7, "unit": "nM"},
      {"measurement": "EC50", "setting": "[5]", "value": 900, "unit": "nM"},
      {"measurement": "EC50", "setting": "[6]", "value": 3800, "unit": "nM"},
      {"measurement": "EC50", "setting": "[2]", "value": "> 200000", "unit": "nM"},
      {"measurement": "EC50", "setting": "[7]", "value": 5900, "unit": "nM"}
    ]},
    {"smiles": "CCCCCCCCCCCCCCCCOCCCOP(=O)(O)CO[C@H](CO)Cn1ccc(N)nc1=O", "note": "[HDP-CDV]", "values": [
      {"measurement": ">120 LAST; 1 + HEME NEW ONSET; CONFIRMED; >25% INC CREATININE", "setting": "[8]; BK negative throughout", "value": 1.3, "unit": "%"},
      {"measurement": "CR >120 LAST VALUE; 1 + HEME CONFIRMED NEW ONSET", "setting": "[8]; BK negative throughout (1/78)", "value": 1.3, "unit": "%"},
      {"measurement": ">120; NEW; >25% INCREASE", "setting": "[8]; BK negative throughout (6/78)", "value": 7.7, "unit": "%"},
      {"measurement": "CREATININE >120 LAST VALUE AND NEW FROM BASELINE", "setting": "[8]; BK negative throughout (6/78)", "value": 7.7, "unit": "%"},
      {"measurement": "creatinine elevations >120 microM and =>25% increase over baseline", "setting": "[8]; BK negative throughout (7/78), placebo 7.4%", "value": 9.0, "unit": "%"},
      {"measurement": "CR >120 LAST VALUE", "setting": "[8]; BK negative throughout (10/78)", "value": 12.8, "unit": "%"},
      {"measurement": "creatinine elevations (>120 last and >25% increase from baseline) OR 1+ heme, confirmed, new onset", "setting": "[8]; BK negative throughout (11/78), placebo 11.1%", "value": 14.1, "unit": "%"},
      {"measurement": "# (of CR >120 at baseline) THAT INCREASED >25%", "setting": "[8]; BK negative throughout, N=78", "value": 1},
      {"measurement": "# (of CR >120 at baseline) THAT INCREASED DURING TREATMENT", "setting": "[8]; BK negative throughout, N=78", "value": 1},
      {"measurement": ">120 LAST; 1 + HEME NEW ONSET; CONFIRMED; >25% INC CREATININE", "setting": "[8]; [10]", "value": 1.1, "unit": "%"},
      {"measurement": "CR >120 LAST VALUE; 1 + HEME CONFIRMED NEW ONSET", "setting": "[8]; [10]", "value": 1.1, "unit": "%"},
      {"measurement": ">120; NEW; >25% INCREASE", "setting": "[8]; BK positive during treatment (7/93)", "value": 7.5, "unit": "%"},
      {"measurement": "end of treatment creatinine elevations >120 microM and =>25% over baseline", "setting": "[8]; BK positive during treatment (7/93), placebo 18.75%", "value": 7.5, "unit": "%"},
      {"measurement": "CREATININE >120 LAST VALUE AND NEW FROM BASELINE", "setting": "[8]; BK positive during treatment (10/93)", "value": 10.8, "unit": "%"},
      {"measurement": "creatinine elevations (>120 last and >25% increase from baseline) OR 1+ heme, confirmed, new onset", "setting": "[8]; BK positive during treatment (11/93), placebo 37.5%", "value": 11.8, "unit": "%"},
      {"measurement": "CR >120 LAST VALUE", "setting": "[8]; BK positive during treatment (14/93)", "value": 15.1, "unit": "%"},
      {"measurement": "# (of CR >120 at baseline) THAT INCREASED >25%", "setting": "[8]; [11]", "value": 0},
      {"measurement": "# (of CR >120 at baseline) THAT INCREASED DURING TREATMENT", "setting": "[8]; [11]", "value": 0},
      {"measurement": "1 + HEME CONFIRMED; NEW ONSET", "setting": "[9]; BK negative throughout (4/78)", "value": 5.1, "unit": "%"},
      {"measurement": "1 + HEME CONFIRMED; NEW ONSET", "setting": "[9]; BK positive during treatment (4/93)", "value": 4.3, "unit": "%"}
    ]}
  ]
}
